# Results from paper PMC7509492, “To What Extent Do Fluorophores Bias the Biological Activity of Peptides? A Practical Approach Using Membrane-Active Peptides as Models” (Frontiers in Bioengineering and Biotechnology, 2020).
# Ends that are not written are not given here. Peptide text beside a SMILES is read from it. * marks the point of attachment. RhodamineB = CCN(CC)c1ccc2c(-c3ccccc3C(=O)*)c3ccc(=[N+](CC)CC)cc-3oc2c1; X1 = CC[N+]1=C(C=CC=C2N(CCCCCC(=O)*)c3ccccc3C2(C)C)C(C)(C)c2ccccc21; 5FAM = O=C1OC2(c3ccc(O)cc3Oc3cc(O)ccc32)c2ccc(C(=O)*)cc21
# What was measured:
# [1] = CellTiter-Blue cell viability assay, MDA-MB-231; type: cell-based, human; settings: human, MDA-MB-231 cells, mean ± SD, triplicates of three independent experiments; for IC90 at 24 h: Table 1, concentration causing 90% cell death, peptide 0.01-100 μM, read-out: Cytotoxicity MDA-MB-231 cells IC90; for IC50 at 24 h: Table 1, peptide 0.01-100 μM, read-out: Cytotoxicity MDA-MB-231 cells IC50
# Method: (§1) Peptides cytotoxicity against both HBEC-5i and MDA-MB-231 cells was determined using CellTiter-Blue® Cell Viability Assay, according to the manufacturer’s instructions. The assay is based on the ability of viable cells to reduce resazurin into resorufin, a highly fluorescent metabolite. […] Therefore, using this methodology is possible to distinguish between metabolic and non-metabolic cells and indirectly determine the cytotoxicity of peptides. Briefly, HBEC-5i and MDA-MB-231 cells were carefully detached from T-flasks, as described previously, and seeded 15,000/100 and 10,000/100 μL, respectively, in 96-well plates (Corning, United States) and incubated for 24 h. After medium removal, cells were washed two times with 1× PBS and 100 μL of previously diluted peptides (range between 0.01 and 100 μM) in either DMEM or DMEM:F12 medium were added to MDA-MB-231 or HBEC-5i cells, respectively. After 24 h incubation, cells were washed two times with 1× PBS, and 20 μL of CellTiter-Blue® Reagent (diluted in 100 μL of medium) was added to each well and incubated for 3 h in a humidified atmosphere of 5% CO2 at 37°C. The fluorescence intensity was measured at λ with an excitation of 560 nm and maximum emission at 590 nm using the infinite F200 TECAN plate reader. Medium and 1% Triton X-100-containing medium were used as positive controls (100% cell viability) and negative controls (0% cell viability), respectively. Cell viability (%) was determined using the following equation:
# (§2) (7) CellViability=FP-FNC/FPC-FNC×100
# (§3) Fp is the fluorescence intensity of peptide-treated cells, FNC is the fluorescence intensity for negative controls, and FPC is the fluorescence intensity for positive controls.
# (§4) Experiments were performed on different days using independently grown cell cultures.
# (§5) FIGURE 4 In vitro cytotoxicity unlabeled- and labeled-peptides. (A,B) Cytotoxicity against HBEC-5i cells. (C,D) Cytotoxicity against MDA-MB-231 cells. 1.5 × 10^4 and 1.0 × 10^4 cells of HBEC-5i and MDA-MB-231 cells, respectively, were incubated with various concentrations of peptides (range from 0.01 to 100 μM). The percentage of viability was determined using CellTiter® Blue reagent assay. […] Error bars, S.D.
# [2] = test system: MDA-MB-231 cells; assay: CellTiter-Blue cell viability assay, MDA-MB-231; type: cell-based, human; settings: peptide 0.01-100 μM, mean ± SD, triplicates of three independent experiments; for Cytotoxicity MDA-MB-231 cells IC10: Table 1, concentration causing 10% cell death; for Cytotoxicity MDA-MB-231 cells IC10 / IC90: 24 h; for IC50: Table 1, 24 h, read-out: Cytotoxicity MDA-MB-231 cells IC50; for IC90: Table 1, concentration causing 90% cell death, read-out: Cytotoxicity MDA-MB-231 cells IC90
# Method: as §1, §2, §3, §4, §5
# [3] = test system: human RBCs; assay: Hemolytic activity on human red blood cells; settings: Table 1, human RBCs in 1x PBS pH 7.4, 24 h, 37°C, peptide 0.01-100 μM, mean ± SD, triplicates of three independent experiments; for Hemolytic activity HC10: concentration causing 10% hemolysis, hemoglobin absorbance 570 nm; for Hemolytic activity HC50: concentration causing 50% hemolysis; for Hemolytic activity HC50 / Hemolytic activity HC90: absorbance 570 nm; for Hemolytic activity HC90: concentration causing 90% hemolysis
# Method: Fresh human blood was collected in EDTA tubes and centrifuged at 1,000 × g for 10 min at 4°C. The supernatant was discharged, and the pellet containing RBCs was washed three times with 1× PBS (137 mM NaCl, 2.7 mM KCl, 10 mM Na2HPO4, and 1.8 mM KH2PO4, pH 7.4) and resuspended in 1× PBS to obtain a 2.0% (v/v) suspension. Then, RBCs were added to centrifuge tubes containing two-fold serially diluted peptides to a final concentration ranging from 0.01 to 100 μM. The suspension was incubated for 24 h at 37°C with gentle stirring. After that, samples were centrifuged for 2 min at 1,000 × g. Supernatants were transferred to 96-well plates, and the hemoglobin released measured by absorbance at 570 nm in an Infinite F200 TECAN plate reader. 1× PBS with no peptides and Triton X-100 at 1 and 4% (v/v) were used as negative and positive controls, respectively. Hemolytic activity (%) was determined using the following equation:
# (2) Hemolyticactivity(%)=AbsPT-AbsNC/AbsPC-AbsNC
# where, AbsPT is the absorbance of treated samples, AbsNC is the absorbance from negative control, and AbsPC absorbance from positive control.
# HC50 values were determined using the GraphPad Prism 7.0 software using a log(inhibitor) vs. normalized response. Experiments were performed on different days using independent blood donors.
# (range from 0.01 to 100 μM). The percentage of hemolysis was determined by the absorbance of hemoglobin released into the supernatant. Melittin was included as a control peptide with hemolytic properties. The values were obtained from triplicates of three independent experiments. Error bars, S.D.
Compound,IC90 at 24 h [1] [µM],IC50 at 24 h [1] [µM],Cytotoxicity MDA-MB-231 cells IC10 [2] [µM],Hemolytic activity HC10 [3] [µM],Hemolytic activity HC50 [3] [µM],Hemolytic activity HC90 [3] [µM],IC50 [2] [µM],IC90 [2] [µM]
CC[C@H](C)[C@H](NC(=O)[C@H](CCCCN)NC(=O)[C@H](CCCCN)NC(=O)[C@H](CC(C)C)NC(=O)[C@H](CCCNC(=N)N)NC(=O)[C@H](CCCCN)NC(=O)[C@H](CCCCN)NC(=O)c1ccc2c(c1)C(=O)OC21c2ccc(O)cc2Oc2cc(O)ccc21)C(=O)N[C@@H](Cc1ccccc1)C(=O)N[C@@H](CCCCN)C(=O)N[C@@H](CCCCN)C(=O)N1CCC[C@H]1C(=O)N[C@@H](CCSC)C(=O)N[C@H](C(=O)N[C@H](C(=O)NCC(=O)N[C@H](C(=O)N[C@H](C(=O)N[C@H](C(=O)N1CCC[C@H]1C(=O)N[C@@H](Cc1ccccc1)C(N)=O)[C@@H](C)CC)[C@@H](C)O)C(C)C)[C@@H](C)CC)C(C)C [CF-Ctn[15-34]] (5FAM-KKRLKKIFKKPMVIGVTIPF-NH2),> 200,> 200,4.23 ± 1.02,>200,>200,>200,,
N=C(N)NCCC[C@H](NC(=O)[C@H](CCCNC(=N)N)NC(=O)[C@@H]1CCCN1C(=O)[C@H](CCCNC(=N)N)NC(=O)[C@H](CCCNC(=N)N)NC(=O)[C@H](CCCNC(=N)N)NC(=O)[C@H](Cc1c[nH]c2ccccc12)NC(=O)[C@H](CCCNC(=N)N)NC(=O)[C@H](CCCNC(=N)N)NC(=O)[C@H](CCCNC(=N)N)NC(=O)[C@H](CCCNC(=N)N)NC(=O)[C@H](CCCNC(=N)N)NC(=O)[C@H](Cc1c[nH]c2ccccc12)NC(=O)[C@H](CCCNC(=N)N)NC(=O)[C@H](CCCNC(=N)N)NC(=O)[C@H](Cc1ccc(O)cc1)NC(=O)[C@H](CCCNC(=N)N)NC(=O)[C@H](CCCNC(=N)N)NC(=O)[C@H](CCCNC(=N)N)NC(=O)[C@H](Cc1c[nH]c2ccccc12)NC(=O)c1ccc2c(c1)C(=O)OC21c2ccc(O)cc2Oc2cc(O)ccc21)C(N)=O [CF-vCPP2319] (5FAM-WRRRYRRWRRRRRWRRRPRR-NH2),18.8 ± 1.87,4.72 ± 0.94,1.26 ± 0.24,>200,>200,>200,,
CC[C@H](C)[C@H](NC(=O)[C@H](CCCCN)NC(=O)[C@H](CCCCN)NC(=O)[C@H](CC(C)C)NC(=O)[C@H](CCCNC(=N)N)NC(=O)[C@H](CCCCN)NC(=O)[C@H](CCCCN)NC(=O)CCCCCN1C(=CC=CC2=[N+](CC)c3ccccc3C2(C)C)C(C)(C)c2ccccc21)C(=O)N[C@@H](Cc1ccccc1)C(=O)N[C@@H](CCCCN)C(=O)N[C@@H](CCCCN)C(=O)N1CCC[C@H]1C(=O)N[C@@H](CCSC)C(=O)N[C@H](C(=O)N[C@H](C(=O)NCC(=O)N[C@H](C(=O)N[C@H](C(=O)N[C@H](C(=O)N1CCC[C@H]1C(=O)N[C@@H](Cc1ccccc1)C(N)=O)[C@@H](C)CC)[C@@H](C)O)C(C)C)[C@@H](C)CC)C(C)C [Q570-Ctn[15-34]] (X1-KKRLKKIFKKPMVIGVTIPF-NH2),> 200,144 ± 4.21,3.08 ± 1.22,,,,,
CC[N+]1=C(C=CC=C2N(CCCCCC(=O)N[C@@H](Cc3c[nH]c4ccccc34)C(=O)N[C@@H](CCCNC(=N)N)C(=O)N[C@@H](CCCNC(=N)N)C(=O)N[C@@H](CCCNC(=N)N)C(=O)N[C@@H](Cc3ccc(O)cc3)C(=O)N[C@@H](CCCNC(=N)N)C(=O)N[C@@H](CCCNC(=N)N)C(=O)N[C@@H](Cc3c[nH]c4ccccc34)C(=O)N[C@@H](CCCNC(=N)N)C(=O)N[C@@H](CCCNC(=N)N)C(=O)N[C@@H](CCCNC(=N)N)C(=O)N[C@@H](CCCNC(=N)N)C(=O)N[C@@H](CCCNC(=N)N)C(=O)N[C@@H](Cc3c[nH]c4ccccc34)C(=O)N[C@@H](CCCNC(=N)N)C(=O)N[C@@H](CCCNC(=N)N)C(=O)N[C@@H](CCCNC(=N)N)C(=O)N3CCC[C@H]3C(=O)N[C@@H](CCCNC(=N)N)C(=O)N[C@@H](CCCNC(=N)N)C(N)=O)c3ccccc3C2(C)C)C(C)(C)c2ccccc21 [Q570-vCPP2319] (X1-WRRRYRRWRRRRRWRRRPRR-NH2),16 ± 1.94,4.26 ± 1.03,1.14 ± 0.34,,,,,
CC[C@H](C)[C@H](NC(=O)[C@H](CCCCN)NC(=O)[C@H](CCCCN)NC(=O)[C@H](CC(C)C)NC(=O)[C@H](CCCNC(=N)N)NC(=O)[C@H](CCCCN)NC(=O)[C@H](CCCCN)NC(=O)c1ccccc1-c1c2ccc(=[N+](CC)CC)cc-2oc2cc(N(CC)CC)ccc12)C(=O)N[C@@H](Cc1ccccc1)C(=O)N[C@@H](CCCCN)C(=O)N[C@@H](CCCCN)C(=O)N1CCC[C@H]1C(=O)N[C@@H](CCSC)C(=O)N[C@H](C(=O)N[C@H](C(=O)NCC(=O)N[C@H](C(=O)N[C@H](C(=O)N[C@H](C(=O)N1CCC[C@H]1C(=O)N[C@@H](Cc1ccccc1)C(N)=O)[C@@H](C)CC)[C@@H](C)O)C(C)C)[C@@H](C)CC)C(C)C [RhB-Ctn[15-34]] (RhodamineB-KKRLKKIFKKPMVIGVTIPF-NH2),> 200,> 200,2.97 ± 0.98,3.29 ± 1.32,61.43 ± 4.33,>200,,
CCN(CC)c1ccc2c(-c3ccccc3C(=O)N[C@@H](Cc3c[nH]c4ccccc34)C(=O)N[C@@H](CCCNC(=N)N)C(=O)N[C@@H](CCCNC(=N)N)C(=O)N[C@@H](CCCNC(=N)N)C(=O)N[C@@H](Cc3ccc(O)cc3)C(=O)N[C@@H](CCCNC(=N)N)C(=O)N[C@@H](CCCNC(=N)N)C(=O)N[C@@H](Cc3c[nH]c4ccccc34)C(=O)N[C@@H](CCCNC(=N)N)C(=O)N[C@@H](CCCNC(=N)N)C(=O)N[C@@H](CCCNC(=N)N)C(=O)N[C@@H](CCCNC(=N)N)C(=O)N[C@@H](CCCNC(=N)N)C(=O)N[C@@H](Cc3c[nH]c4ccccc34)C(=O)N[C@@H](CCCNC(=N)N)C(=O)N[C@@H](CCCNC(=N)N)C(=O)N[C@@H](CCCNC(=N)N)C(=O)N3CCC[C@H]3C(=O)N[C@@H](CCCNC(=N)N)C(=O)N[C@@H](CCCNC(=N)N)C(N)=O)c3ccc(=[N+](CC)CC)cc-3oc2c1 [RhB-vCPP2319] (RhodamineB-WRRRYRRWRRRRRWRRRPRR-NH2),16.6 ± 1.31,4.11 ± 1.04,1.13 ± 0.64,2.43 ± 0.32,23.88 ± 2.24,>200,,
KKRLKKIFKKPMVIGVTIPF-NH2 [Ctn[15-34]],> 200,> 200,4.76 ± 1.56,>200,>200,>200,,
TF3-KKRLKKIFKKPMVIGVTIPF-amide [TF3-Ctn[15-34]],,,2.57 ± 1.37,102.0 ± 6.20,>200,>200,123 ± 3.84,> 200
TF3-WRRRYRRWRRRRRWRRRPRR-amide [TF3-vCPP2319],,,1.05 ± 0.21,2.83 ± 0.97,>200,>200,4.3 ± 0.03,17 ± 1.58
WRRRYRRWRRRRRWRRRPRR-NH2 [vCPP2319],20.6 ± 2.1,5.02 ± 1.04,1.22 ± 0.52,>200,>200,>200,,
